Tests used:
Type in all cases: cell-based
[1] = test system: methicillin-resistant Staphylococcus aureus (MRSA) isolate N34; assay: Disc diffusion assay, MRSA isolate N34
Text: (§1) Monolaurin samples (MC, MW and MX) synthesized using the present invention were subjected to bio-assay evaluation. Disc diffusion assay was adopted as preliminary evaluation of the compounds as anti methicillin-resistant Staphylococcus aureus (MRSA) agent. Four types of antibiotics were used as comparison: Vancomycin (Va), Rifampicin (RD), Chloamphenicol (C) and Gentamicin (CN).

[2] = test system: methicillin-resistant Staphylococcus aureus (MRSA) isolate D51; assay: Disc diffusion assay, MRSA isolate D51
Text: as §1

[3] = test system: methicillin-resistant Staphylococcus aureus (MRSA) isolate SA; assay: Disc diffusion assay, MRSA isolate SA
Text: as §1

[4] = test system: methicillin-resistant Staphylococcus aureus (MRSA) isolate U949; assay: Disc diffusion assay, MRSA isolate U949
Text: as §1

[5] = test system: methicillin-resistant Staphylococcus aureus (MRSA) isolate SP521; assay: Disc diffusion assay, MRSA isolate SP521
Text: as §1

[6] = test system: methicillin-resistant Staphylococcus aureus (MRSA) isolate HIS87; assay: Disc diffusion assay, MRSA isolate HIS87
Text: as §1

[7] = test system: methicillin-resistant Staphylococcus aureus (MRSA) isolate CT184; assay: Disc diffusion assay, MRSA isolate CT184
Text: as §1

[8] = test system: methicillin-resistant Staphylococcus aureus (MRSA) isolate ST122; assay: Disc diffusion assay, MRSA isolate ST122
Text: as §1

[9] = C (Chloamphenicol) as comparison

| SMILES | Diameter of Inhibitory Zone [1, 9] [mm] | Diameter of Inhibitory Zone ([1]; CN (Gentamicin) as comparison) [mm] | Diameter of Inhibitory Zone ([1]; Rd (Rifampicin) as comparison) [mm] | Diameter of Inhibitory Zone ([1]; Va (Vancomycin) as comparison) [mm] | Diameter of Inhibitory Zone [2, 9] [mm] | Diameter of Inhibitory Zone ([2]; CN (Gentamicin) as comparison) [mm] | Diameter of Inhibitory Zone ([2]; Rd (Rifampicin) as comparison) [mm] | Diameter of Inhibitory Zone ([2]; Va (Vancomycin) as comparison) [mm] | Diameter of Inhibitory Zone [3, 9] [mm] | Diameter of Inhibitory Zone ([3]; CN (Gentamicin) as comparison) [mm] | Diameter of Inhibitory Zone ([3]; Rd (Rifampicin) as comparison) [mm] | Diameter of Inhibitory Zone ([3]; Va (Vancomycin) as comparison) [mm] | Diameter of Inhibitory Zone [4, 9] [mm] | Diameter of Inhibitory Zone ([4]; CN (Gentamicin) as comparison) [mm] | Diameter of Inhibitory Zone ([4]; Rd (Rifampicin) as comparison) [mm] | Diameter of Inhibitory Zone ([4]; Va (Vancomycin) as comparison) [mm] | Diameter of Inhibitory Zone [5, 9] [mm] | Diameter of Inhibitory Zone ([5]; CN (Gentamicin) as comparison) [mm] | Diameter of Inhibitory Zone ([5]; Rd (Rifampicin) as comparison) [mm] | Diameter of Inhibitory Zone ([5]; Va (Vancomycin) as comparison) [mm] | further results |
| --- | --- | --- | --- | --- | --- | --- | --- | --- | --- | --- | --- | --- | --- | --- | --- | --- | --- | --- | --- | --- | --- |
| CCCCCCCCCCCC(=O)OCC(O)CO (stereo not shown) [MC, monolaurin] | 0.89 | 0.44 | 0.44 | 2.99 | 0.87 | 0.86 | 0.11 | 2.95 | 2.00 | 0.40 | 0.40 | 2.92 | 4.73 | 1.02 | 1.02 | 7.77 | 2.68 | 1.13 | 1.13 | 7.64 | Diameter of Inhibitory Zone [6, 9]: 0.84 mm; Diameter of Inhibitory Zone ([6]; CN (Gentamicin) as comparison): 0.96 mm; Diameter of Inhibitory Zone ([6]; Rd (Rifampicin) as comparison): 0.11 mm; Diameter of Inhibitory Zone ([6]; Va (Vancomycin) as comparison): 2.79 mm; Diameter of Inhibitory Zone [7, 9]: 0.82 mm; Diameter of Inhibitory Zone ([7]; CN (Gentamicin) as comparison): 0.35 mm; Diameter of Inhibitory Zone ([7]; Rd (Rifampicin) as comparison): 0.42 mm; Diameter of Inhibitory Zone ([7]; Va (Vancomycin) as comparison): 2.79 mm; Diameter of Inhibitory Zone [8, 9]: 5.50 mm; Diameter of Inhibitory Zone ([8]; CN (Gentamicin) as comparison): 1.17 mm; Diameter of Inhibitory Zone ([8]; Rd (Rifampicin) as comparison): 1.17 mm; Diameter of Inhibitory Zone ([8]; Va (Vancomycin) as comparison): 8.26 mm |
| CCCCCCCCCCCC(=O)OCC(O)CO (stereo not shown) [MW, monolaurin] | 0.93 | 0.46 | 0.46 | 3.12 | 0.88 | 0.88 | 0.11 | 3.00 | 3.72 | 0.74 | 0.74 | 5.42 | 1.85 | 0.40 | 0.40 | 3.04 | 2.14 | 0.90 | 0.90 | 6.12 | Diameter of Inhibitory Zone [6, 9]: 0.85 mm; Diameter of Inhibitory Zone ([6]; CN (Gentamicin) as comparison): 0.98 mm; Diameter of Inhibitory Zone ([6]; Rd (Rifampicin) as comparison): 0.12 mm; Diameter of Inhibitory Zone ([6]; Va (Vancomycin) as comparison): 2.84 mm; Diameter of Inhibitory Zone [7, 9]: 0.82 mm; Diameter of Inhibitory Zone ([7]; CN (Gentamicin) as comparison): 0.35 mm; Diameter of Inhibitory Zone ([7]; Rd (Rifampicin) as comparison): 0.42 mm; Diameter of Inhibitory Zone ([7]; Va (Vancomycin) as comparison): 2.79 mm; Diameter of Inhibitory Zone [8, 9]: 4.25 mm; Diameter of Inhibitory Zone ([8]; CN (Gentamicin) as comparison): 0.90 mm; Diameter of Inhibitory Zone ([8]; Rd (Rifampicin) as comparison): 0.90 mm; Diameter of Inhibitory Zone ([8]; Va (Vancomycin) as comparison): 6.38 mm |

Source: patent US20060128979A1, “High purity palm monoglycerides” (Lembaga Minyak Sawit Malaysia, priority 2004, published 2006)
